Reference: patent US12285407B2, “Bis-indolylmethane derivatives and uses thereof” (The University of The West Indies, priority 2018, dated 2025)

What was measured:
Bacillus cereus [1] = experiment: Adjuvant broth microdilution (antibiotic MIC with SP-BIM at 50 μg/mL); assay type: cell-based; details: antibiotic alone, Table 9
Escherichia coli [2] = experiment: Checkerboard synergy (FICI) of antibiotics with SP-BIM; set-up: MIC SP-BIM 13 only / MIC in combination: Antibiotic: unit not given beside the values
[3] = tested on: clinical antibiotic resistant isolates of Enterococcus faecium; experiment: Checkerboard resistance breaking by SP-BIM 13; assay type: cell-based; details: for FIC compound / Rescue concentration of SP-BIM 13: SP-BIM 13 with the labelled antibiotic; for Interpretation / Σ FIC: antibiotic + SP-BIM 13; for MIC of antibiotic only: antibiotic alone; for FIC antibiotic: combination with SP-BIM 13; for MIC of antibiotic in combination: with SP-BIM 13 at rescue concentration
Bacillus cereus [4] = experiment: Checkerboard synergy (FICI) of antibiotics with SP-BIM; assay type: cell-based
Klebsiella pneumoniae = experiment: as above; assay type: cell-based
Streptococcus pneumoniae [5] = experiment: as above; assay type: cell-based
Escherichia coli O157:H7 = assay type: cell-based; details: antibiotic alone, no SP-BIM
Staphylococcus aureus = experiment: Checkerboard synergy (FICI) of antibiotics with SP-BIM; assay type: cell-based; details: Staphylococcus aureus
Enterococcus faecalis = experiment: Adjuvant broth microdilution (antibiotic MIC with SP-BIM at 50 μg/mL); assay type: cell-based; details: antibiotic alone
Streptococcus pneumoniae [6] = experiment: as above; assay type: cell-based; details: Streptococcus pneumoniae, read-out: MIC of antibiotic, No compound
Escherichia coli [7] = experiment: microbe, parasite or virus in culture; assay type: cell-based; details: read-out: MIC of antibiotic, No compound
MRSA HS 10132 = experiment: Systemic lethal MRSA infection in mice (survival); assay type: in vivo; details: vancomycin only
Candida albicans = experiment: Checkerboard synergy (FICI) of antibiotics with SP-BIM; set-up: MIC SP-BIM 13 only / MIC in combination: Antibiotic / MIC antibiotic only: unit not given beside the values
Enterobacter cloacae = experiment: Adjuvant broth microdilution (antibiotic MIC with SP-BIM at 50 μg/mL); assay type: cell-based; details: antibiotic alone
[8] = 24 h, read-out: MIC antibiotic only
[9] = MIC of the antibiotic in combination with SP-BIM 13
[10] = SP-BIM 9 in combination with the labelled antibiotic
[11] = SP-BIM 13 in combination with the labelled antibiotic
[12] = antibiotic in combination with SP-BIM 9
[13] = antibiotic alone, SP-BIM 13 checkerboard
[14] = antibiotic in combination with SP-BIM 13
[15] = Streptococcus pneumonia (title: Streptococcus pyogenes), antibiotic + SP-BIM 9
[16] = Streptococcus pneumoniae, antibiotic + SP-BIM 13

CN[C@H](CC(C)C)C(=O)N[C@H]1C(=O)N[C@@H](CC(N)=O)C(=O)N[C@H]2C(=O)N[C@H]3C(=O)N[C@H](C(=O)N[C@H](C(=O)O)c4cc(O)cc(O)c4-c4cc3ccc4O)[C@H](O)c3ccc(c(Cl)c3)Oc3cc2cc(c3O[C@@H]2O[C@H](CO)[C@@H](O)[C@H](O)[C@H]2O[C@H]2C[C@](C)(N)[C@H](O)[C@H](C)O2)Oc2ccc(cc2Cl)[C@H]1O [Vancomycin, vancomycin]
MIC of antibiotic, No Compound (Bacillus cereus [1]): 4 µg/mL
MIC (Escherichia coli [2]; [8]): 125 µg/mL
MIC in combination: Antibiotic (Escherichia coli [2]; [9]): 125
FIC of SP-BIM 9 (Escherichia coli [2]; [10]): 1
FIC of SP-BIM 13 (Escherichia coli [2]; [11]): 1.0
Interpretation (Escherichia coli [2]; antibiotic + SP-BIM 9): Indifferent (Indifferent: FICI>1.0-4.0)
Σ FIC (Escherichia coli [2]; antibiotic + SP-BIM 9): <2.0
Interpretation (Escherichia coli [2]; antibiotic + SP-BIM 13): Indifferent (Indifferent: FICI>1.0-4.0)
Σ FIC (Escherichia coli [2]; antibiotic + SP-BIM 13): <2.0
MIC antibiotic only (Escherichia coli [2]; antibiotic alone): 125
MIC in combination, Antibiotic (Escherichia coli [2]; [12]): 125 µg/mL
FIC of antibiotic (Escherichia coli [2]; combination with SP-BIM 13): 1.0
FIC of antibiotic (Escherichia coli [2]; in combination with SP-BIM 9): 1
FIC compound ([3]; E. faecium strain 21024): 0.128
Rescue concentration of SP-BIM 13 ([3]; E. faecium strain 21024): 32 µg/mL
Interpretation ([3]; E. faecium strain 21024): Synergy (Synergy: FICI≤0.5)
Σ FIC ([3]; E. faecium strain 21024): <0.14
MIC of antibiotic only ([3]; E. faecium strain 21024): 63 µg/mL
FIC antibiotic ([3]; E. faecium strain 21024): 0.016
MIC of antibiotic in combination ([3]; E. faecium strain 21024): 1 µg/mL
FIC compound ([3]; E. faecium strain 22870): 0.004
Rescue concentration of SP-BIM 13 ([3]; E. faecium strain 22870): 1 µg/mL
Interpretation ([3]; E. faecium strain 22870): Synergy (Synergy: FICI≤0.5)
Σ FIC ([3]; E. faecium strain 22870): <0.07
MIC of antibiotic only ([3]; E. faecium strain 22870): 32 µg/mL
FIC antibiotic ([3]; E. faecium strain 22870): 0.063
MIC of antibiotic in combination ([3]; E. faecium strain 22870): 2 µg/mL
FIC compound ([3]; E. faecium strain 23227): 0.032
Rescue concentration of SP-BIM 13 ([3]; E. faecium strain 23227): 8 µg/mL
Interpretation ([3]; E. faecium strain 23227): Synergy (Synergy: FICI≤0.5)
Σ FIC ([3]; E. faecium strain 23227): <0.06
MIC of antibiotic only ([3]; E. faecium strain 23227): 32 µg/mL
FIC antibiotic ([3]; E. faecium strain 23227): 0.031
MIC of antibiotic in combination ([3]; E. faecium strain 23227): 1 µg/mL
FIC compound ([3]; E. faecium strain 23230): 0.064
Rescue concentration of SP-BIM 13 ([3]; E. faecium strain 23230): 16 µg/mL
Interpretation ([3]; E. faecium strain 23230): Synergy (Synergy: FICI≤0.5)
Σ FIC ([3]; E. faecium strain 23230): <0.13
MIC of antibiotic only ([3]; E. faecium strain 23230): 32 µg/mL
FIC antibiotic ([3]; E. faecium strain 23230): 0.063
MIC of antibiotic in combination ([3]; E. faecium strain 23230): 2 µg/mL
FIC compound ([3]; E. faecium strain 23668): 0.064
Rescue concentration of SP-BIM 13 ([3]; E. faecium strain 23668): 16 µg/mL
Interpretation ([3]; E. faecium strain 23668): Synergy (Synergy: FICI≤0.5)
Σ FIC ([3]; E. faecium strain 23668): <0.10
MIC of antibiotic only ([3]; E. faecium strain 23668): 32 µg/mL
FIC antibiotic ([3]; E. faecium strain 23668): 0.031
MIC of antibiotic in combination ([3]; E. faecium strain 23668): 1 µg/mL
FIC compound ([3]; E. faecium strain 24169): 0.128
Rescue concentration of SP-BIM 13 ([3]; E. faecium strain 24169): 32 µg/mL
Interpretation ([3]; E. faecium strain 24169): Synergy (Synergy: FICI≤0.5)
Σ FIC ([3]; E. faecium strain 24169): <0.14
MIC of antibiotic only ([3]; E. faecium strain 24169): 63 µg/mL
FIC antibiotic ([3]; E. faecium strain 24169): 0.008
MIC of antibiotic in combination ([3]; E. faecium strain 24169): 0.5 µg/mL
Rescue concentration of SP-BIM 13 ([3]; E. faecium strain RC63): 63 µg/mL
Interpretation ([3]; E. faecium strain RC63): Synergy (Synergy: FICI≤0.5)
Σ FIC ([3]; E. faecium strain RC63): <0.26
MIC of antibiotic only ([3]; E. faecium strain RC63): 32 µg/mL
FIC antibiotic ([3]; E. faecium strain RC63): 0.006
MIC of antibiotic in combination ([3]; E. faecium strain RC63): 0.2 µg/mL
MIC ([3]; Enterococcus faecium, read-out: MIC of Vancomycin without SP-BIM 13): 32 to 63 µg/mL
MIC (Bacillus cereus [4]; [8]): 2 µg/mL
FIC of SP-BIM 13 (Bacillus cereus [4]; [11]): 0.0
Interpretation (Bacillus cereus [4]; antibiotic + SP-BIM 13): Synergy (Synergy: FICI≤0.5)
Σ FIC (Bacillus cereus [4]; antibiotic + SP-BIM 13): 0.1
MIC antibiotic only (Bacillus cereus [4]; [13]): 2 µg/mL
MIC in combination, Antibiotic (Bacillus cereus [4]; [14]): 0.25 µg/mL
FIC of antibiotic (Bacillus cereus [4]; in combination with SP-BIM 13): 0.13
MIC (Klebsiella pneumoniae; [8]): 125 µg/mL
FIC of SP-BIM 9 (Klebsiella pneumoniae; [10]): 1
FIC of SP-BIM 13 (Klebsiella pneumoniae; [11]): 1.0
Interpretation (Klebsiella pneumoniae; antibiotic + SP-BIM 9): Indifferent (Indifferent: FICI>1.0-4.0)
Σ FIC (Klebsiella pneumoniae; antibiotic + SP-BIM 9): <2.0
Interpretation (Klebsiella pneumoniae; antibiotic + SP-BIM 13): Indifferent (Indifferent: FICI>1.0-4.0)
Σ FIC (Klebsiella pneumoniae; antibiotic + SP-BIM 13): <2.0
MIC antibiotic only (Klebsiella pneumoniae; [13]): 125 µg/mL
MIC in combination, Antibiotic (Klebsiella pneumoniae; [12]): 125 µg/mL
MIC in combination, Antibiotic (Klebsiella pneumoniae; [14]): 125 µg/mL
FIC of antibiotic (Klebsiella pneumoniae; in combination with SP-BIM 9): 1
FIC of antibiotic (Klebsiella pneumoniae; in combination with SP-BIM 13): 1.0
FIC of SP-BIM 9 (Streptococcus pneumoniae [5]; Streptococcus pneumonia (title: Streptococcus pyogenes), SP-BIM 9 in combination with the labelled antibiotic): 0.26
Interpretation (Streptococcus pneumoniae [5]; [15]): Synergy (Synergy: FICI≤0.5)
Σ FIC (Streptococcus pneumoniae [5]; [15]): <0.36
MIC in combination, Antibiotic (Streptococcus pneumoniae [5]; Streptococcus pneumonia (title: Streptococcus pyogenes), antibiotic in combination with SP-BIM 9): 0.2 µg/mL
FIC of antibiotic (Streptococcus pneumoniae [5]; Streptococcus pneumonia (title: Streptococcus pyogenes), in combination with SP-BIM 9): 0.10
MIC (Streptococcus pneumoniae [5]; Streptococcus pneumoniae, 24 h, read-out: MIC antibiotic only): 2 µg/mL
FIC of SP-BIM 13 (Streptococcus pneumoniae [5]; Streptococcus pneumoniae, SP-BIM 13 in combination with the labelled antibiotic): 0.1
Interpretation (Streptococcus pneumoniae [5]; [16]): Synergy (Synergy: FICI≤0.5)
Σ FIC (Streptococcus pneumoniae [5]; [16]): 0.3
MIC antibiotic only (Streptococcus pneumoniae [5]; Streptococcus pneumoniae, antibiotic alone, SP-BIM 13 checkerboard): 2 µg/mL
MIC in combination, Antibiotic (Streptococcus pneumoniae [5]; Streptococcus pneumoniae, antibiotic in combination with SP-BIM 13): 0.5 µg/mL
FIC of antibiotic (Streptococcus pneumoniae [5]; Streptococcus pneumoniae, in combination with SP-BIM 13): 0.3
MIC of antibiotic, No Compound (Escherichia coli O157:H7): 250 µg/mL
MIC (Staphylococcus aureus; [8]): 2 µg/mL
FIC of SP-BIM 9 (Staphylococcus aureus; [10]): 0.02
FIC of SP-BIM 13 (Staphylococcus aureus; [11]): 0.3
Interpretation (Staphylococcus aureus; antibiotic + SP-BIM 9): Synergy (Synergy: FICI≤0.5)
Σ FIC (Staphylococcus aureus; antibiotic + SP-BIM 9): <0.27
Interpretation (Staphylococcus aureus; antibiotic + SP-BIM 13): Synergy (Synergy: FICI≤0.5)
Σ FIC (Staphylococcus aureus; antibiotic + SP-BIM 13): 0.4
MIC antibiotic only (Staphylococcus aureus; [13]): 2 µg/mL
MIC in combination, Antibiotic (Staphylococcus aureus; [12]): 0.5 µg/mL
MIC in combination, Antibiotic (Staphylococcus aureus; [14]): 0.25 µg/mL
FIC of antibiotic (Staphylococcus aureus; in combination with SP-BIM 9): 0.25
FIC of antibiotic (Staphylococcus aureus; in combination with SP-BIM 13): 0.1
MIC of antibiotic, No Compound (Enterococcus faecalis): 250 µg/mL
MIC (Streptococcus pneumoniae [6]): 1 µg/mL
MIC (Escherichia coli [7]): 125 µg/mL
survival rate (MRSA HS 10132): similarly high survival rate
MIC (Candida albicans; [8]): 16 µg/mL
MIC in combination: Antibiotic (Candida albicans; [9]): 8
FIC of SP-BIM 13 (Candida albicans; [11]): 0.1
Interpretation (Candida albicans; antibiotic + SP-BIM 13): Additive (Additive: FICI>0.5-1.0)
Σ FIC (Candida albicans; antibiotic + SP-BIM 13): <0.6
FIC of antibiotic (Candida albicans; combination with SP-BIM 13): 0.5
MIC of antibiotic, No Compound (Enterobacter cloacae): >250 µg/mL
